Experimental data as given in PubChem BioAssay (NCI).
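In this assay, cells in 96-well plates receive the compound at five concentrations for 48 hours. Endpoints are linearly interpolated between the surrounding concentrations. At the TGI there is no net growth.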

Legend:
Experiment in all cases: inhibition of tumour cell growth, NCI panel, 48 h
UACC-62 melanoma = tested on: UACC-62 melanoma
U251 CNS = tested on: U251 CNS
RXF 393 renal = tested on: RXF 393 renal
HOP-62 NSCLC = tested on: HOP-62 NSCLC
SK-MEL-2 melanoma = tested on: SK-MEL-2 melanoma
HOP-92 NSCLC = tested on: HOP-92 NSCLC
SK-MEL-28 melanoma = tested on: SK-MEL-28 melanoma
SW-620 colon = tested on: SW-620 colon
EKVX NSCLC = tested on: EKVX NSCLC
HT29 colon = tested on: HT29 colon
SNB-78 CNS = tested on: SNB-78 CNS
HCT-15 colon = tested on: HCT-15 colon
OVCAR-8 ovarian = tested on: OVCAR-8 ovarian
DMS 114 small cell lung = tested on: DMS 114 small cell lung
HCC-2998 colon = tested on: HCC-2998 colon
NCI-H460 lung = tested on: NCI-H460 lung
SF-295 CNS = tested on: SF-295 CNS
RPMI-8226 leukemia = tested on: RPMI-8226 leukemia
XF 498 CNS = tested on: XF 498 CNS
SF-539 CNS = tested on: SF-539 CNS
SR leukemia = tested on: SR leukemia
OVCAR-5 ovarian = tested on: OVCAR-5 ovarian
DLD-1 colon = tested on: DLD-1 colon
DMS 273 small cell lung = tested on: DMS 273 small cell lung
LOX IMVI melanoma = tested on: LOX IMVI melanoma
HCT-116 colon = tested on: HCT-116 colon
OVCAR-3 ovarian = tested on: OVCAR-3 ovarian
MALME-3M melanoma = tested on: MALME-3M melanoma
KM20L2 colon = tested on: KM20L2 colon
M14 melanoma = tested on: M14 melanoma
SK-OV-3 ovarian = tested on: SK-OV-3 ovarian
CAKI-1 renal = tested on: CAKI-1 renal
SK-MEL-5 melanoma = tested on: SK-MEL-5 melanoma
HL-60(TB) leukemia = tested on: HL-60(TB) leukemia
SNB-19 CNS = tested on: SNB-19 CNS
NCI-H522 lung = tested on: NCI-H522 lung
A498 renal = tested on: A498 renal
NCI-H226 lung = tested on: NCI-H226 lung
UACC-257 melanoma = tested on: UACC-257 melanoma
786-0 renal = tested on: 786-0 renal
CCRF-CEM leukemia = tested on: CCRF-CEM leukemia
KM12 colon = tested on: KM12 colon
UO-31 renal = tested on: UO-31 renal
NCI-H23 lung = tested on: NCI-H23 lung
SNB-75 CNS = tested on: SNB-75 CNS
MOLT-4 leukemia = tested on: MOLT-4 leukemia
SN12C renal = tested on: SN12C renal
OVCAR-4 ovarian = tested on: OVCAR-4 ovarian
HOP-18 NSCLC = tested on: HOP-18 NSCLC
COLO 205 colon = tested on: COLO 205 colon
ACHN renal = tested on: ACHN renal
K-562 leukemia = tested on: K-562 leukemia
RXF-631 renal = tested on: RXF-631 renal
A549 NSCLC = tested on: A549 NSCLC
TK-10 renal = tested on: TK-10 renal
SF-268 CNS = tested on: SF-268 CNS
LXFL 529 NSCLC = tested on: LXFL 529 NSCLC
IGROV1 ovarian = tested on: IGROV1 ovarian
M19-MEL melanoma = tested on: M19-MEL melanoma

NCCc1ccc2oc3cc(=O)c4ccccc4c-3nc2c1
TGI (UACC-62 melanoma): 8.58 µM
TGI (U251 CNS): 10.6 µM
TGI (RXF 393 renal): 9.94 µM
TGI (HOP-62 NSCLC): 10.3 µM
TGI (SK-MEL-2 melanoma): 5.16 µM
TGI (HOP-92 NSCLC): 21.6 µM
TGI (SK-MEL-28 melanoma): 10.7 µM
TGI (SW-620 colon): 5.95 µM
TGI (EKVX NSCLC): 25.1 µM
TGI (HT29 colon): 4.35 µM
TGI (SNB-78 CNS): 23.3 µM
TGI (HCT-15 colon): 5.01 µM
TGI (OVCAR-8 ovarian): 10.6 µM
TGI (DMS 114 small cell lung): 2.85 µM
TGI (HCC-2998 colon): 6.78 µM
TGI (NCI-H460 lung): 2.76 µM
TGI (SF-295 CNS): 9.48 µM
TGI (RPMI-8226 leukemia): 23.2 µM
TGI (XF 498 CNS): 7.01 µM
TGI (SF-539 CNS): 6.35 µM
TGI (SR leukemia): 4.67 µM
TGI (OVCAR-5 ovarian): 15.4 µM
TGI (DLD-1 colon): 9.34 µM
TGI (DMS 273 small cell lung): 3.11 µM
TGI (LOX IMVI melanoma): 4.42 µM
TGI (HCT-116 colon): 2.87 µM
TGI (OVCAR-3 ovarian): 8.12 µM
TGI (MALME-3M melanoma): 4.37 µM
TGI (KM20L2 colon): 9.12 µM
TGI (M14 melanoma): 4.18 µM
TGI (SK-OV-3 ovarian): 24.4 µM
TGI (CAKI-1 renal): 24 µM
TGI (SK-MEL-5 melanoma): 2.13 µM
TGI (HL-60(TB) leukemia): 3.42 µM
TGI (SNB-19 CNS): 11 µM
TGI (NCI-H522 lung): 7.66 µM
TGI (A498 renal): 26.3 µM
TGI (NCI-H226 lung): 17.5 µM
TGI (UACC-257 melanoma): 7.4 µM
TGI (786-0 renal): 4.89 µM
TGI (CCRF-CEM leukemia): 4.49 µM
TGI (KM12 colon): 8.35 µM
TGI (UO-31 renal): 9.37 µM
TGI (NCI-H23 lung): 2.39 µM
TGI (SNB-75 CNS): 6.06 µM
TGI (MOLT-4 leukemia): 5.52 µM
TGI (SN12C renal): 7.22 µM
TGI (OVCAR-4 ovarian): 15.8 µM
TGI (HOP-18 NSCLC): 4.67 µM
TGI (COLO 205 colon): 1.81 µM
TGI (ACHN renal): 12 µM
TGI (K-562 leukemia): 6.95 µM
TGI (RXF-631 renal): 8.88 µM
TGI (A549 NSCLC): 2.18 µM
TGI (TK-10 renal): 27.3 µM
TGI (SF-268 CNS): 15.4 µM
TGI (LXFL 529 NSCLC): 13.4 µM
TGI (IGROV1 ovarian): 15.5 µM
TGI (M19-MEL melanoma): 0.894 µM

CCCCCCCCCCC(O)CCCCCCC(=O)O (stereo not drawn)
TGI (UACC-62 melanoma): 41.7 µM
TGI (U251 CNS): 45.8 µM
TGI (RXF 393 renal): 98 µM
TGI (HOP-62 NSCLC): > 100 µM
TGI (SK-MEL-2 melanoma): > 100 µM
TGI (HOP-92 NSCLC): 37.3 µM
TGI (SK-MEL-28 melanoma): > 100 µM
TGI (SW-620 colon): 86.5 µM
TGI (EKVX NSCLC): > 100 µM
TGI (HT29 colon): 40.6 µM
TGI (SNB-78 CNS): > 100 µM
TGI (OVCAR-8 ovarian): 31.1 µM
TGI (DMS 114 small cell lung): 56.2 µM
TGI (NCI-H460 lung): 32.4 µM
TGI (SF-295 CNS): 80.8 µM
TGI (RPMI-8226 leukemia): 28.2 µM
TGI (XF 498 CNS): 88.9 µM
TGI (SF-539 CNS): 67.3 µM
TGI (SR leukemia): 41.9 µM
TGI (OVCAR-5 ovarian): > 100 µM
TGI (DLD-1 colon): 59.7 µM
TGI (DMS 273 small cell lung): 55.6 µM
TGI (LOX IMVI melanoma): 31.1 µM
TGI (HCT-116 colon): 33.3 µM
TGI (OVCAR-3 ovarian): 45.3 µM
TGI (MALME-3M melanoma): 59.5 µM
TGI (M14 melanoma): 44.3 µM
TGI (SK-OV-3 ovarian): > 100 µM
TGI (CAKI-1 renal): > 100 µM
TGI (SK-MEL-5 melanoma): 29.9 µM
TGI (HL-60(TB) leukemia): 25.6 µM
TGI (SNB-19 CNS): > 100 µM
TGI (NCI-H522 lung): 62.5 µM
TGI (A498 renal): 46.1 µM
TGI (NCI-H226 lung): > 100 µM
TGI (UACC-257 melanoma): > 100 µM
TGI (786-0 renal): 93.3 µM
TGI (CCRF-CEM leukemia): 91.3 µM
TGI (KM12 colon): 31.6 µM
TGI (UO-31 renal): > 100 µM
TGI (NCI-H23 lung): > 100 µM
TGI (SNB-75 CNS): > 100 µM
TGI (MOLT-4 leukemia): 34.5 µM
TGI (SN12C renal): 50.7 µM
TGI (OVCAR-4 ovarian): > 100 µM
TGI (HOP-18 NSCLC): 63 µM
TGI (COLO 205 colon): 30 µM
TGI (ACHN renal): 54 µM
TGI (K-562 leukemia): 39.1 µM
TGI (RXF-631 renal): 39.1 µM
TGI (A549 NSCLC): 54.7 µM
TGI (TK-10 renal): > 100 µM
TGI (SF-268 CNS): > 100 µM
TGI (LXFL 529 NSCLC): 71 µM
TGI (IGROV1 ovarian): 34.6 µM
TGI (M19-MEL melanoma): > 100 µM

CCOc1ccc2nc(NC(=O)C(=O)C(C#N)CC(C)(C)C=O)sc2c1 (stereo not drawn)
TGI (UACC-62 melanoma): > 100 µM
TGI (U251 CNS): > 100 µM
TGI (RXF 393 renal): > 100 µM
TGI (HOP-62 NSCLC): > 100 µM
TGI (SK-MEL-2 melanoma): > 100 µM
TGI (HOP-92 NSCLC): > 100 µM
TGI (SK-MEL-28 melanoma): > 100 µM
TGI (EKVX NSCLC): > 100 µM
TGI (HT29 colon): > 100 µM
TGI (SNB-78 CNS): > 100 µM
TGI (HCT-15 colon): > 100 µM
TGI (OVCAR-8 ovarian): > 100 µM
TGI (DMS 114 small cell lung): > 100 µM
TGI (HCC-2998 colon): > 100 µM
TGI (NCI-H460 lung): > 100 µM
TGI (SF-295 CNS): > 100 µM
TGI (RPMI-8226 leukemia): > 100 µM
TGI (XF 498 CNS): > 100 µM
TGI (SF-539 CNS): > 100 µM
TGI (SR leukemia): 46 µM
TGI (OVCAR-5 ovarian): > 100 µM
TGI (DLD-1 colon): > 100 µM
TGI (DMS 273 small cell lung): 51.5 µM
TGI (LOX IMVI melanoma): > 100 µM
TGI (HCT-116 colon): > 100 µM
TGI (OVCAR-3 ovarian): > 100 µM
TGI (MALME-3M melanoma): > 100 µM
TGI (KM20L2 colon): > 100 µM
TGI (M14 melanoma): > 100 µM
TGI (SK-OV-3 ovarian): > 100 µM
TGI (CAKI-1 renal): > 100 µM
TGI (SK-MEL-5 melanoma): > 100 µM
TGI (HL-60(TB) leukemia): > 100 µM
TGI (SNB-19 CNS): > 100 µM
TGI (NCI-H522 lung): > 100 µM
TGI (A498 renal): > 100 µM
TGI (NCI-H226 lung): > 100 µM
TGI (UACC-257 melanoma): > 100 µM
TGI (786-0 renal): > 100 µM
TGI (CCRF-CEM leukemia): 63.1 µM
TGI (KM12 colon): > 100 µM
TGI (UO-31 renal): > 100 µM
TGI (NCI-H23 lung): > 100 µM
TGI (SNB-75 CNS): > 100 µM
TGI (MOLT-4 leukemia): > 100 µM
TGI (SN12C renal): > 100 µM
TGI (OVCAR-4 ovarian): > 100 µM
TGI (HOP-18 NSCLC): > 100 µM
TGI (COLO 205 colon): > 100 µM
TGI (ACHN renal): > 100 µM
TGI (K-562 leukemia): > 100 µM
TGI (RXF-631 renal): > 100 µM
TGI (A549 NSCLC): > 100 µM
TGI (TK-10 renal): > 100 µM
TGI (SF-268 CNS): > 100 µM
TGI (LXFL 529 NSCLC): > 100 µM
TGI (IGROV1 ovarian): > 100 µM
TGI (M19-MEL melanoma): > 100 µM
